Assay results published in PubChem BioAssay AID1918952 (Molecular Pharmacology Branch, DTP, NCI, 2023).

Test system: LG0703-F948-PDC complex spheroid viability
Assay: Anticancer human tumor LG0703-F948-PDC patient-derived lung adenocarcinoma cell line growth inhibition
Details: for IC50: curve of first compound; for viability, T/C: stronger effect = lower value
Summary of the method: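 Drug combinations with the LSD1 inhibitor iadademstat tested on tumor cells co-cultured as spheroids with endothelial cells and mesenchymal stem cells. Concentrations descended in half-log increments from clinical Cmax or 10 microM.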

[1] = second compound 0.1 µM, first compound 0.00949 µM
[2] = second compound 0.1 µM, first compound 0.03 µM
[3] = second compound 0.1 µM, first compound 0.0949 µM
[4] = second compound 0.1 µM, first compound 0.3 µM
[5] = second compound 0.1 µM, first compound 0.949 µM
[6] = second compound 0.1 µM, first compound 3 µM
[7] = second compound 0.316 µM, first compound 0.00949 µM
[8] = second compound 0.316 µM, first compound 0.03 µM
[9] = second compound 0.316 µM, first compound 0.0949 µM
[10] = second compound 0.316 µM, first compound 0.3 µM
[11] = second compound 0.316 µM, first compound 0.949 µM
[12] = second compound 0.316 µM, first compound 3 µM
[13] = second compound 1 µM, first compound 0.00949 µM
[14] = second compound 1 µM, first compound 0.03 µM
[15] = second compound 1 µM, first compound 0.0949 µM
[16] = second compound 1 µM, first compound 0.3 µM
[17] = second compound 1 µM, first compound 0.949 µM
[18] = second compound 1 µM, first compound 3 µM
[19] = second compound 3.16 µM, first compound 0.00949 µM
[20] = second compound 3.16 µM, first compound 0.03 µM
[21] = second compound 3.16 µM, first compound 0.0949 µM
[22] = second compound 3.16 µM, first compound 0.3 µM
[23] = second compound 3.16 µM, first compound 0.949 µM
[24] = second compound 3.16 µM, first compound 3 µM
[25] = second compound 10 µM, first compound 0.00949 µM
[26] = second compound 10 µM, first compound 0.03 µM
[27] = second compound 10 µM, first compound 0.0949 µM
[28] = second compound 10 µM, first compound 0.3 µM
[29] = second compound 10 µM, first compound 0.949 µM
[30] = second compound 10 µM, first compound 3 µM
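Further: spheroids exposed to agents for seven days before readout.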
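Wherever viability, T/C is given: 100% = DMSO vehicle control wells as normalization base.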

NS(=O)(=O)OCC1CC(n2ccc3c(NC4CCc5ccccc54)ncnc32)CC1O (stereo not given) + NC1CCC(NC2CC2c2ccccc2)CC1
IC50 (second compound 0.1 µM): 546 nM | IC50 (second compound 0.316 µM): 607 nM | IC50 (second compound 1 µM): 670 nM | IC50 (second compound 3.16 µM): 633 nM | IC50 (second compound 10 µM): 467 nM | viability, T/C [1]: 106% | viability, T/C [2]: 111% | viability, T/C [3]: 106% | viability, T/C [4]: 70.7% | viability, T/C [5]: 31.4% | viability, T/C [6]: 19.1% | viability, T/C [7]: 111% | viability, T/C [8]: 123% | viability, T/C [9]: 109% | viability, T/C [10]: 80.5% | viability, T/C [11]: 30.7% | viability, T/C [12]: 17.1% | viability, T/C [13]: 113% | viability, T/C [14]: 144% | viability, T/C [15]: 105% | viability, T/C [16]: 83.3% | viability, T/C [17]: 35.9% | viability, T/C [18]: 16.2% | viability, T/C [19]: 124% | viability, T/C [20]: 141% | viability, T/C [21]: 112% | viability, T/C [22]: 82.5% | viability, T/C [23]: 32.4% | viability, T/C [24]: 13.6% | viability, T/C [25]: 124% | viability, T/C [26]: 124% | viability, T/C [27]: 124% | viability, T/C [28]: 69.3% | viability, T/C [29]: 20.4% | viability, T/C [30]: 8.21%

O=C(C=Cc1cccc(S(=O)(=O)Nc2ccccc2)c1)NO + NC1CCC(NC2CC2c2ccccc2)CC1
IC50 (second compound 0.1 µM): 78.2 nM | IC50 (second compound 0.316 µM): 83.5 nM | IC50 (second compound 1 µM): 83.2 nM | IC50 (second compound 3.16 µM): 77.8 nM | IC50 (second compound 10 µM): 57.6 nM | viability, T/C [1]: 103% | viability, T/C [2]: 88% | viability, T/C [3]: 41.8% | viability, T/C [4]: 10.5% | viability, T/C [5]: 1.71% | viability, T/C [6]: 0.44% | viability, T/C [7]: 114% | viability, T/C [8]: 93.5% | viability, T/C [9]: 44.5% | viability, T/C [10]: 10.6% | viability, T/C [11]: 1.43% | viability, T/C [12]: 0.17% | viability, T/C [13]: 126% | viability, T/C [14]: 89.5% | viability, T/C [15]: 48.5% | viability, T/C [16]: 9.18% | viability, T/C [17]: 1.34% | viability, T/C [18]: 0.11% | viability, T/C [19]: 102% | viability, T/C [20]: 86% | viability, T/C [21]: 42.9% | viability, T/C [22]: 8.17% | viability, T/C [23]: 0.32% | viability, T/C [24]: 0.12% | viability, T/C [25]: 114% | viability, T/C [26]: 77.3% | viability, T/C [27]: 29.8% | viability, T/C [28]: 4% | viability, T/C [29]: 0.21% | viability, T/C [30]: 0.19%
